From patent US20140212949A1, “METHOD FOR PREPARING MICROVESICULAR ADAM15” (INDUSTRY-ACADEMIC COOPERATION FOUNDATION, YONSEI UNIVERSITY, priority 2011, published 2014)

How the values were obtained:
Type in all cases: cell-based, human
MCF-7 cells [1] = assay: ADAM15 release from MCF-7 cells into conditioned medium and levels in cell lysates (western blotting)
Method: FIG. 1 verifies that ADAM15 is released into the extracellular space. […] MCF-7 cells were incubated with 5 ng/Ml PMA in serum-free RPMI 1640 medium. P indicates pro-ADAM15 and M indicates mature ADAM15. In the results of the lower panel, data are represented as the mean±standard deviation of four experiments. *P<0.01; Student's t test. […] Cells were treated as described in the drawing. Arrows indicate pro-ADAM15 (P) and mature ADAM15 (M), respectively.
Cells were lysed in buffer containing 50 Mm Tris-HCl, pH 7.5, 5 mM EDTA, 150 mM NaCl, 1% Triton X-100, and protease inhibitor cocktail (Roche Applied Science, Indianapolis, Ind.) for 1 h at 4° C. and then centrifuged. The soluble portion of the lysate was used for western blotting, which was performed by separation of reduced or non-reduced samples on SDS-PAGE, followed by electroblotting to nitrocellulose membranes and detection of bound antibody by enhanced chemiluminescence (Amersham Biosciences, Pittsburgh, Pa.).
There are several studies showing that various membrane proteins are secreted into the extracellular space through ectodomain shedding or microvesicle release (van Kilsdonk et al., 2010). Here, we examined whether ADAM15 protein is released from human breast cancer MCF-7 cells into conditioned medium. Mature ADAM15 was detected in the conditioned medium by immunoblotting analysis with an antibody against ADAM15 extracellular domain (FIG. 1A). […] In MCF-7 cells, both the pro and mature forms of ADAM15 were detected. […] The mRNA levels of ADAM15 after PMA stimulation were also assessed. […] We further investigated whether released ADAM15 was generated by ectodomain shedding.

THP-1 cells = assay: Release of exosomal ADAM15 from THP-1 cells; conditions: THP-1 cells incubated with PMA in serum-free medium for 24 h
Method: (§1) FIG. 9 verifies that the release of exosomal ADAM15 is further induced by LPS stimulation in differentiated THP-1 macrophages. […] THP-1 cells were incubated with PMA in serum-free medium for 24 h. Arrows indicate pro-ADAM15 and mature ADAM15, respectively. Total protein bands of exosomes were shown by Coomassie blue staining (middle penal). In the graph of the right panel, data are represented as the mean±standard deviation of three experiments. […] PMA-differentiated THP-1 cells were washed with PBS and further cultured for 2˜3 days. THP-1 macrophages were incubated with LPS in serum-free medium for 18 h. Exosomes were isolated from conditioned media. Arrows indicate pro-ADAM15 and mature ADAM15, respectively. Total protein bands of exosomes were shown by Coomassie blue staining (middle penal). The right panel represents the mean and standard deviation of three experiments. […] THP-1 cells were treated with or without PMA and/or LPS in serum-free medium for 18 h. […]
(§2) Cells were incubated with or without PMA in serum-free medium or medium containing 5% FBS for 24 h. […] Protein concentration was measured by a modified Bradford assay (Bio-Rad Laboratories, Hercules, Calif.). […] The tubes were then ultracentrifuged at 100,000×g for 2.5 h in a Beckman SW 55 Ti rotor, and fractions with different densities were sequentially collected from the top of the tube and analyzed for exosomes containing ADAM15.

MCF-7 cells [2] = assay: Flow cytometric analysis of cell- and exosomal-surface expression of ADAM15; conditions: flow cytometry; 5 ng/Ml PMA for 24 h
Method: FIG. 2 verifies that released ADAM15 is associated with exosomes, and exosome-mediated ADAM15 is secreted by PMA-stimulated PKC activation. […] Conditioned medium of MCF-7 cells treated with or without 5 ng/Ml PMA for 24 h was subjected to sequential centrifugation as follows: 300×g (P1), 1,200×g (P2), 10,000×g (P3), 100,000×g (P4), and 100,000×g after filtering through a 0.22-μm pore size filter (P4′). Pellets from each stage were subjected to western blotting analysis using an anti-ADAM15 cytoplasmic domain antibody. Arrows indicate pro-ADAM15 (P) and mature ADAM15 (M), respectively. […] Isolated microvesicles from conditioned medium of MCF-7 cells treated with 5 ng/Ml PMA were subjected to sucrose gradient centrifugation. Each fraction was concentrated prior to SDS-PAGE. […] After ultracentrifugation at 100,000×g, the pellets were analyzed by immunoblotting with antibody to ADAM15 cytoplasmic domain. […] Isolated exosomes were analyzed by immunoblotting with ADAM15 antibody. […] The percent changes in fluorescence intensity associated with the presence of ADAM15 are shown.
Flow cytometric analysis of exosomes was performed as previously described with minor modifications (Thery et al., 2001). […] Flow cytometry was performed on a FACSCalibur (BD Biosciences), and data were analyzed using WinMDI software version 2.8 (The Scripps Research Institute, La Jolla, Calif.).

HEK293F cells = assay: Exosomal ADAM15 enrichment in transfected HEK293F cells (immunoblotting); conditions: 5 ng/Ml PMA for 24 h
Method: FIG. 3 verifies that ADAM15-rich exosomes have a high binding affinity for integrin αvβ3 and prevents interactions between integrin αvβ3 and vitronectin. […] FIGS. 3B and 3C show immunoblotting analysis. Prior to exosome isolation, transfected cells were stimulated with or without 5 ng/Ml PMA for 24 h, and the isolated exosomes were analyzed by immunoblotting analysis with the indicated antibodies. The exosomes were incubated with purified integrin αvβ3 (FIG. 3B) or α5β1 (FIG. 3C), followed by ultracentrifugation. The precipitates were analyzed by immunoblotting analysis. In the graphs, the immunoblotting results are represented by the relative intensity. […] Exosomes were incubated with purified integrin αvβ3 on a vitronectin-coated plate, and bound integrins were detected by anti-integrin αvβ3 antibody. […] After 2-h incubation, the number of bound cells was determined by MTT assay (OD: 540 nm). […]
as §2

MCF-7 cells [3] = assay: Exosome-associated ADAM15 release from MCF-7 cells (sequential centrifugation, immunoblotting); conditions: 5 ng/Ml PMA for 24 h; 100,000×g pellet
Method: FIG. 2 verifies that released ADAM15 is associated with exosomes, and exosome-mediated ADAM15 is secreted by PMA-stimulated PKC activation. […] Conditioned medium of MCF-7 cells treated with or without 5 ng/Ml PMA for 24 h was subjected to sequential centrifugation as follows: 300×g (P1), 1,200×g (P2), 10,000×g (P3), 100,000×g (P4), and 100,000×g after filtering through a 0.22-μm pore size filter (P4′). Pellets from each stage were subjected to western blotting analysis using an anti-ADAM15 cytoplasmic domain antibody. Arrows indicate pro-ADAM15 (P) and mature ADAM15 (M), respectively. […] After ultracentrifugation at 100,000×g, the pellets were analyzed by immunoblotting with antibody to ADAM15 cytoplasmic domain. […] Isolated exosomes were analyzed by immunoblotting with ADAM15 antibody. […] The percent changes in fluorescence intensity associated with the presence of ADAM15 are shown.
as §2

MCF-7 cells [4] = assay: Semi-quantitative RT-PCR analysis of ADAM15 mRNA in MCF-7 cells; conditions: 5 ng/Ml PMA for the indicated times
MDAH-2774 cells = assay: Effect of PKC inhibitor on secretion of exosome-associated ADAM15; conditions: PMA and indicated concentrations of calphostin C for 24 h
THP-1 macrophages = assay: Release of exosomal ADAM15 from differentiated THP-1 macrophages; conditions: THP-1 macrophages incubated with LPS in serum-free medium for 18 h
Method: as §1, §2

For CCCCCCCCCCCCCC(=O)O[C@@H]1[C@@H](C)[C@@]2(O)[C@@H](C=C(CO)C[C@]3(O)C(=O)C(C)=C[C@@H]23)[C@@H]2C(C)(C)[C@]12OC(C)=O [PMA, phorbol 12-myristate 13-acetate], the “ADAM15 release into conditioned medium” value (MCF-7 cells [1]; 5 ng/Ml PMA, serum-free RPMI 1640, antibody against ADAM15 extracellular domain) was “largely increased”, the “other membrane proteins ADAM10 and E-cadherin in cells” value (MCF-7 cells [1]; cell lysates after PMA stimulation) was “unchanged” and the “pro and mature forms of ADAM15 in cells” value (MCF-7 cells [1]; cell lysates, time after PMA stimulation, barely detectable after 24 hrs) was “decreased with time”. For the same compound, the “release of exosomal ADAM15” value (THP-1 cells) was “effectively increased”, the “exosomal-surface ADAM15” value (MCF-7 cells [2]) was “increase” and the “plasma membrane-associated ADAM15” value (MCF-7 cells [2]) was “decrease”. The “exosomal ADAM15 in exosomes of ADAM15-transfected cells” value (HEK293F cells) was “further exosomal enrichment”, the “amount of exosomal ADAM15” value (MCF-7 cells [3]) was “increased” and the “ADAM15 mRNA levels” value (MCF-7 cells [4]) was “unchanged”.

With calphostin C the “PMA-stimulated ADAM15 release” value (MDAH-2774 cells) was “successfully blocked”.

For lipopolysaccharide [LPS], the “release of exosomal ADAM15” value (THP-1 macrophages) was “enhanced”.
